In the experiment the target is T1, C5aR (Homo sapiens, UniProt P21730).
T1 construct: U937 cells are a monocytic cell line which express C5aR; host or cells: U937 cells (cAMP treated) or isolated neutrophils
T1 sequence (P21730 1-350): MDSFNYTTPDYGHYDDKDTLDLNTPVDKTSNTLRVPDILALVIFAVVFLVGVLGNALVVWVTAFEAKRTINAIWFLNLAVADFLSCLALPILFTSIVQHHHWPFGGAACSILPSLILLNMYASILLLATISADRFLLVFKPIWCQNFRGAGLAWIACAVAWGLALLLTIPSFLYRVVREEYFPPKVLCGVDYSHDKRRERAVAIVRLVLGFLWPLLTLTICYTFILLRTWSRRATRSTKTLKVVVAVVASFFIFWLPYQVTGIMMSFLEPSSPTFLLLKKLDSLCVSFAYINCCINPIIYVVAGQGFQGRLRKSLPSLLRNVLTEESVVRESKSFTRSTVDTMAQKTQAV
The experiment in a line: chemotaxis assay (C5aR mediated migration). It is filed as cell-based. To be noted: migration of U937 or neutrophil cells toward C5a (0.03 nM), 1.5 hours at 37° C., read-out: Mig IC50. The method in brief: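 Migration of cAMP-treated U937 cells (0.5 mM overnight), or of human or murine neutrophils, toward C5a was measured through 5 μm polycarbonate filters in HBSS with 1% FBS. SDF-1α served as a specificity control. After 1.5 h at 37 °C, lower-chamber cells were counted directly or by CyQuant.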
One may read the IC50 as the concentration that inhibits the measured activity by half. For `CCc1cccc(CC)c1-n1nc2c(c1-c1ccc3[nH]ccc3c1)CN(Cc1cc(F)ccc1Cl)CC2` [Example 1.230], the IC50 is under 5 nM.
`CCc1cccc(CC)c1-n1nc2c(c1-c1ccc(Cl)c3[nH]ccc13)CN(c1ncc(F)cn1)CC2` [Example 1.158]: the IC50 is under 5 nM.
In the case of `Cc1cccc(C)c1-n1nc2c(c1-c1ccc3[nH]ccc3c1)CN(Cc1ccccc1C(F)(F)F)CC2` [Example 1.221], the IC50 fell in the range of 5 to 50 nM.
With `CCc1cccc(CC)c1-n1nc2c(c1-c1c(F)cc(OC)c3[nH]ccc13)CN(c1ncc(C(F)(F)F)cc1F)CC2` [Example 1.045], the IC50 is under 5 nM.
Consider `CCc1cccc(CC)c1-n1nc2c(c1-c1ccc(C)c3[nH]ccc13)CN(c1ncc(C(C)C)cn1)CC2` [Example 1.147], for which the IC50 was under 5 nM.
With `CCc1cccc(CC)c1-n1nc2c(c1-c1c(F)cc(OC)c3[nH]ccc13)CN(c1ncc(C(F)(F)F)cn1)CC2` [Example 1.046], the IC50 is under 5 nM.
As to `Cc1cccc(OCC(C)C)c1-n1nc2c(c1-c1cccc3[nH]ccc13)CN(Cc1cc(Cl)ccc1C(F)(F)F)CC2` [Example 1.205], the IC50 lay in the range of 5 to 50 nM.
In the case of `Cc1cccc(C)c1-n1nc2c(c1-c1ccc(F)c3[nH]cc(Cl)c13)CN(c1ncc(C(F)(F)F)cc1F)CC2` [Example 1.166], the IC50 is 50 to 500 nM.
Regarding `CCc1cccc(CC)c1-n1nc2c(c1-c1cc(F)c(C)c3[nH]ccc13)CN(c1ncc(C(F)(F)F)cn1)CC2` [Example 1.093], the concentration for half-maximal inhibition (IC50) is under 5 nM.
Turning to `Cc1cccc(OCC(C)C)c1-n1nc2c(c1-c1cccc3[nH]ccc13)CN(c1ncc(Cl)cc1Cl)CC2` [Example 1.201], the concentration for half-maximal inhibition (IC50) lay within 5 to 50 nM.
For the compound `CCc1cccc(CC)c1-n1nc2c(c1-c1c(F)cc(CO)c3[nH]ccc13)CN(c1ncc(C(F)(F)F)cc1F)CC2` [Example 1.104], the IC50 is under 5 nM.
`Cc1cccc(C)c1-n1nc2c(c1-c1cc3cc[nH]c3cc1F)CN(c1ncc(Cl)cc1Cl)CC2` [Example 1.193]: the IC50 lay in the range of 50 to 500 nM.
Turning to `Cc1cccc(OCC(C)C)c1-n1nc2c(c1-c1ccc3[nH]ccc3c1)CN(C(=O)NC(C)(C)C)CC2` [Example 1.186], the IC50 was in the range of 50 to 500 nM.
Regarding `Cc1cccc(OCC(C)C)c1-n1nc2c(c1-c1ccc3[nH]ccc3c1)CN(c1nc(C(C)C)ns1)CC2` [Example 1.210], the IC50 was in the range of 5 to 50 nM.
With `CCc1cccc(CC)c1-n1nc2c(c1-c1c(F)cc(C)c3[nH]ccc13)CN(c1ncc(C(C)C)cc1F)CC2` [Example 1.145] the figure was under 5 nM; with `Cc1cccc(C)c1-n1nc2c(c1-c1ccc(F)c3[nH]ccc13)CN(c1ncc(C(F)(F)F)cc1F)CC2` [Example 1.178], 50 to 500 nM; with `Cc1cccc(C)c1-n1nc2c(c1-c1c(F)cc(Cl)c3[nH]ccc13)CN(c1ncc(C(F)(F)F)cn1)CC2` [Example 1.122], 5 to 50 nM.
Take `CCc1cccc(CC)c1-n1nc2c(c1-c1ccc(Cl)c3[nH]ccc13)CN(c1nccc(N)n1)CC2` [Example 1.129]: the IC50 lay within 50 to 500 nM.
`CCOc1c(F)cc(-c2c3c(nn2-c2c(CC)cccc2CC)CCN(c2ncc(C(F)(F)F)cn2)C3)c2cc[nH]c12` [Example 1.024]: the IC50 was under 5 nM.
`CCc1cccc(CC)c1-n1nc2c(c1-c1ccc(Cl)c3[nH]ncc13)CN(c1ncc(C(F)(F)F)cc1F)CC2` [Example 1.119]: the IC50 lay in the range of 5 to 50 nM.
With `CCc1cccc(CC)c1-n1nc2c(c1-c1ncc(Cl)c3[nH]ccc13)CN(c1ncc(C(F)(F)F)cn1)CC2` [Example 1.008], the IC50 is under 5 nM.
Consider `COc1cccc(C)c1-n1nc2c(c1-c1ccc3[nH]ccc3c1)CN(c1cc(C(C)(C)C)ccc1C)CC2` [Example 1.006], for which the concentration for half-maximal inhibition (IC50) is 5 to 50 nM.
With `CCc1cccc(CC)c1-n1nc2c(c1-c1cc(Cl)cc3[nH]cnc13)CN(c1ncc(C(F)(F)F)cn1)CC2` [Example 1.025] the figure was 50 to 500 nM; with `Cc1cccc(OCC(C)C)c1-n1nc2c(c1-c1ccc3[nH]nc(N)c3c1)CN(c1ncc(C(F)(F)F)cc1F)CC2` [Example 1.225], over 500 nM; with `CCc1cccc(CC)c1-n1nc2c(c1-c1ncc(OC)c3[nH]ccc13)CN(c1ncc(C(F)(F)F)cn1)CC2` [Example 1.013], 5 to 50 nM.
With `Cc1cccc(OCC(C)C)c1-n1nc2c(c1-c1cc(F)c3[nH]ccc3c1)CN(c1ncc(C(F)(F)F)cc1F)CC2` [Example 1.218] the figure was under 5 nM; with `CCc1cccc(CC)c1-n1nc2c(c1-c1c(F)cc(CO)c3[nH]ccc13)CN(c1ncc(C3CC3)cn1)CC2` [Example 1.066], under 5 nM; with `CCc1cccc(CC)c1-n1nc2c(c1-c1nccc3[nH]cc(Cl)c13)CN(c1ncc(C(F)(F)F)cn1)CC2` [Example 1.005], under 5 nM.
As to `CCc1cccc(CC)c1-n1nc2c(c1-c1ccc3[nH]ccc3c1)CN(Cc1cc(Cl)ccc1C(F)(F)F)CC2` [Example 1.226], the IC50 is under 5 nM.
With `CCc1cccc(CC)c1-n1nc2c(c1-c1ccc(Cl)c3[nH]ccc13)CN(c1ncccn1)CC2` [Example 1.157], the IC50 was under 5 nM.
For `Cc1cccc(C)c1-n1nc2c(c1-c1c(F)cc(CO)c3[nH]ccc13)CN(c1ncc(C(F)(F)F)cn1)CC2` [Example 1.090] the value was 5 to 50 nM.
With `CCc1cccc(CC)c1-n1nc2c(c1-c1ccc(C)c3[nH]ccc13)CN(c1ncc(C(F)(F)F)cn1)CC2` [Example 1.140] the figure was under 5 nM.
On to `Cc1cccc(OCC(C)C)c1-n1nc2c(c1-c1cccc3[nH]ccc13)CN(c1ncc(C(C)C)cc1F)CC2` [Example 1.198], for which the IC50 was 5 to 50 nM.
For `CCc1cccc(CC)c1-n1nc2c(c1-c1ccc3[nH]ccc3c1)CN(Cc1cc(Cl)ccc1Cl)CC2` [Example 1.227] the value was under 5 nM; for `CCc1cccc(CC)c1-n1nc2c(c1-c1cc(F)c(CO)c3[nH]cnc13)CN(c1ncc(C(F)(F)F)cn1)CC2` [Example 1.030], under 5 nM.
As to `Cc1cccc(OCC(C)C)c1-n1nc2c(c1-c1ccnc3[nH]ccc13)CN(c1ncc(C(F)(F)F)cc1F)CC2` [Example 1.217], the IC50 is 50 to 500 nM.
For `CCc1cccc(CC)c1-n1nc2c(c1-c1ccc(Cl)c3[nH]ccc13)CN(c1ncc(Cl)c(OC)n1)CC2` [Example 1.121], the half-inhibitory concentration (IC50) is 5 to 50 nM.
Regarding `CCc1cccc(CC)c1-n1nc2c(c1-c1ccc(F)c3[nH]cc(Cl)c13)CN(c1ncc(C(F)(F)F)cc1F)CC2` [Example 1.162], the IC50 was 5 to 50 nM.
For `COc1cnc(N2CCc3nn(-c4c(C)cccc4C)c(-c4c(F)cc(Cl)c5[nH]ccc45)c3C2)nc1` [Example 1.111], the IC50 lay in the range of 5 to 50 nM.
`CCc1cccc(CC)c1-n1nc2c(c1-c1ccc(Cl)c3[nH]ccc13)CN(c1ncc(F)cc1Cl)CC2` [Example 1.159]: the IC50 was under 5 nM.
With `CCc1cccc(CC)c1-n1nc2c(c1-c1ccc3[nH]ccc3c1)CN(C(C)C(C)C)CC2` (stereo not shown) [Example 1.211], the IC50 is 5 to 50 nM.
With `CCc1cccc(CC)c1-n1nc2c(c1-c1ccc(OC)c3[nH]ccc13)CN(c1ncc(C(F)(F)F)cc1F)CC2` [Example 1.089], the IC50 was in the range of 5 to 50 nM.
With `CCc1cccc(CC)c1-n1nc2c(c1-c1ccc(F)c3[nH]ccc13)CN(c1cnccn1)CC2` [Example 1.173], the IC50 fell in the range of 5 to 50 nM.
Regarding `Cc1cccc(C)c1-n1nc2c(c1-c1ccc(Cl)c3[nH]ccc13)CN(c1ncc(C(F)(F)F)cn1)CC2` [Example 1.060], the IC50 was under 5 nM.
For `CCc1cccc(CC)c1-n1nc2c(c1-c1ccc(Cl)c3[nH]ccc13)C(=O)N(c1ncc(C(F)(F)F)cn1)CC2` [Example 1.034], the IC50 is over 500 nM.
Turning to `Cc1nc2cc(-c3c4c(nn3-c3c(C)cccc3OCC(C)C)CCN(c3ncc(C(F)(F)F)cc3F)C4)ccc2[nH]1` [Example 1.224], the 50% inhibitory concentration (IC50) is over 500 nM.
Take `CCc1cccc(CC)c1-n1nc2c(c1-c1ccc(Cl)c3[nH]ccc13)CN(C(=O)Nc1ccccc1)CC2` [Example 1.149]: the IC50 is 5 to 50 nM.
With `Cc1cccc(C)c1-n1nc2c(c1-c1ncc(Cl)c3[nH]ccc13)CN(c1ncc(C3CC3)cn1)CC2` [Example 1.001], the IC50 fell in the range of 5 to 50 nM.
For `CCc1cccc(CC)c1-n1nc2c(c1-c1ccc(F)c3[nH]ccc13)CN(c1ncc(Cl)cc1Cl)CC2` [Example 1.187] the value was under 5 nM.
